How the values were obtained:
[1] = tested on: HMV-II (Melanoma); assay: combination Emax (second highest fraction inhibited in the dose matrix, 72 h); higher = more inhibition; extreme values may be limits of the assay
In short: (§1)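 After 24 hours at 37°C and 5% CO2 in 1536-well plates, cells in DMEM/F12 or RPMI plus 10% FBS received two-drug dose matrices for 72 hours. Viability came from CellTiter-Glo 2.0 luminescence and was scaled as inhibition, anchored at 0 by vehicle wells and at 1 by blank wells. Combination Emax is taken as the second-highest inhibition in the matrix, and Bliss excess as the observed combination effect less EA + EB − EA·EB, with EA and EB the single-agent effects.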

[2] = tested on: NCI-H28 (Mesothelioma); assay: as above
In short: as §1

[3] = tested on: LB771-HNC (Head and Neck Carcinoma); assay: as above
In short: as §1

[4] = tested on: EN (Endometrial Carcinoma); assay: as above
In short: as §1

[5] = tested on: CTB-1 (B-Cell Non-Hodgkin's Lymphoma); assay: Bliss excess, mean over the matrix (fraction); higher = more synergy
In short: as §1

[6] = tested on: RT-112 (Bladder Carcinoma); assay: as above
In short: as §1

[7] = tested on: UMC-11 (Other Solid Carcinomas); assay: as above
In short: as §1

[8] = tested on: RKO (Colorectal Carcinoma); assay: as above
In short: as §1

[9] = tested on: HMV-II (Melanoma); assay: as above
In short: as §1

[10] = tested on: OC-314 (Ovarian Carcinoma); assay: as above
In short: as §1

[11] = tested on: SH-4 (Melanoma); assay: as above
In short: as §1

[12] = tested on: SU-DHL-6 (B-Cell Non-Hodgkin's Lymphoma); assay: as above
In short: as §1

[13] = tested on: LB771-HNC (Head and Neck Carcinoma); assay: as above
In short: as §1

[14] = tested on: HCC-15 (Squamous Cell Lung Carcinoma); assay: as above
In short: as §1

[15] = tested on: 8305C (Thyroid Gland Carcinoma); assay: as above
In short: as §1

[16] = tested on: 639-V (Bladder Carcinoma); assay: as above
In short: as §1

[17] = tested on: RPMI-6666 (Non-Cancerous); assay: as above
In short: as §1

[18] = tested on: CAL-51 (Breast Carcinoma); assay: as above
In short: as §1

[19] = tested on: Hs-633T (Other Solid Carcinomas); assay: as above
In short: as §1

[20] = tested on: CAPAN-1 (Pancreatic Carcinoma); assay: as above
In short: as §1
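Throughout, for Bliss excess, mean over the matrix: after 72 h of two-drug dosing.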

SMILES | combination Emax [1] | combination Emax [2] | combination Emax [3] | combination Emax [4] | Bliss excess [5] | Bliss excess [6] | Bliss excess [7] | Bliss excess [8] | Bliss excess [9] | Bliss excess [10] | Bliss excess [11] | Bliss excess [12] | Bliss excess [13] | Bliss excess [14] | Bliss excess [15] | Bliss excess [16] | Bliss excess [17] | Bliss excess [18] | Bliss excess [19] | Bliss excess [20]
CC1(C)CCC(CN2CCN(c3ccc(C(=O)NS(=O)(=O)c4ccc(NCC5CCOCC5)c([N+](=O)[O-])c4)c(Oc4cnc5[nH]ccc5c4)c3)CC2)=C(c2ccc(Cl)cc2)C1 [Venetoclax] + C=CCn1c(=O)c2cnc(Nc3ccc(N4CCN(C)CC4)cc3)nc2n1-c1cccc(C(C)(C)O)n1 [AZD1775] (first compound max 1 µM, partner max 1 µM) | 0.484 | 0.336 | 0.518 | 0.653 | -0.0812 | 0.0891 | -0.0679 | 0.0487 | -0.0542 | 0.1 | 0.0107 | 0.0009 | 0.0127 | -0.0355 | -0.0431 | -0.0322 | 0.0917 | -0.0507 | 0.017 | -0.0443
CC1(C)CCC(CN2CCN(c3ccc(C(=O)NS(=O)(=O)c4ccc(NCC5CCOCC5)c([N+](=O)[O-])c4)c(Oc4cnc5[nH]ccc5c4)c3)CC2)=C(c2ccc(Cl)cc2)C1 [Venetoclax] + CCN(CCO)CCCOc1ccc2c(Nc3cc(CC(=O)Nc4cccc(F)c4)[nH]n3)ncnc2c1 [AZD2811] (first compound max 1 µM, 7x7, partner max 1 µM) | 0.263 | 0.255 | 0.186 | 0.399 | -0.118 | 0.045 | -0.0398 | 0.0096 | 0.0208 | -0.0071 | -0.0115 | 0.0684 | -0.028 | -0.0209 | -0.0038 | -0.0262 | 0.189 | 0.046 | -0.0086 | -0.042
CC1(C)CCC(CN2CCN(c3ccc(C(=O)NS(=O)(=O)c4ccc(NCC5CCOCC5)c([N+](=O)[O-])c4)c(Oc4cnc5[nH]ccc5c4)c3)CC2)=C(c2ccc(Cl)cc2)C1 [Venetoclax] + COc1cc(Nc2ncc3c(n2)-c2ccc(Cl)cc2C(c2c(F)cccc2OC)=NC3)ccc1C(=O)O [Alisertib] (first compound max 1 µM, 7x7, partner max 10 µM) | 0.363 | 0.348 | 0.697 | 0.463 | -0.0467 | -0.0323 | 0.192 | -0.0062 | -0.0414 | 0.0244 | -0.0234 | 0.121 | -0.0185 | -0.0104 | -0.0592 | 0.0173 | 0.0702 | 0.0319 | -0.0237 | -0.0425
CCN(CCO)CCCOc1ccc2c(Nc3cc(CC(=O)Nc4cccc(F)c4)[nH]n3)ncnc2c1 [AZD2811] + C[C@@H]1COCCN1C2=NC(=NC(=C2)C3(CC3)[S@](=N)(=O)C)C4=C5C=CNC5=NC=C4 [AZD6738] (first compound max 1 µM, 7x7, partner max 10 µM) | 0.313 | 0.533 | 0.46 | 0.609 | -0.0826 | -0.0581 | -0.0488 | -0.0152 | -0.0395 | 0.0052 | -0.0474 | 0.0131 | -0.0492 | -0.0238 | -0.0872 | -0.0164 | -0.0653 | 0.0075 | -0.0197 | -0.0939
CN(C)CCCOc1ccc(-c2ccc3ncc4c(c3c2)n(C2CCOCC2)c(=O)n4C)cn1 [AZD0156] + CCN(CCO)CCCOc1ccc2c(Nc3cc(CC(=O)Nc4cccc(F)c4)[nH]n3)ncnc2c1 [AZD2811] (first compound max 1 µM, 7x7, partner max 1 µM) | 0.164 | 0.149 | 0.142 | 0.494 | 0.002 | -0.0098 | -0.0622 | 0.014 | -0.0133 | 0.0078 | -0.0328 | -0.0026 | -0.0498 | -0.0506 | -0.0794 | 0.0064 | 0.0312 | 0.0226 | -0.0139 | -0.0635
COc1cccc2c1C(=O)c1c(O)c3c(c(O)c1C2=O)C[C@@](O)(C(=O)CO)C[C@@H]3O[C@H]1C[C@H](N)[C@H](O)[C@H](C)O1 [Doxorubicin] + Cc1cc2ncnn2cc1Nc1ncc2c(n1)n(C1CCOCC1)c(=O)n2C [AZD7648] (first compound max 1 µM, 7x7, partner max 10 µM) | 0.907 | 0.605 | 0.193 | 0.735 | 0.077 | 0.151 | 0.07 | 0.0473 | 0.062 | 0.105 | 0.024 | 0.0697 | -0.035 | 0.0127 | -0.0023 | 0.117 | 0.103 | 0.121 | 0.118 | 0.0038
COc1cccc(OCCCN)c1-c1cc(Nc2cnc(C#N)cn2)n[nH]1 [Prexasertib] + CN(C)CCCOc1ccc(-c2ccc3ncc4c(c3c2)n(C2CCOCC2)c(=O)n4C)cn1 [AZD0156] (first compound max 1 µM, 7x7, partner max 1 µM) | 0.517 | 0.626 | 0.587 | 0.762 | 0.0109 | 0.0134 | -0.0236 | -0.014 | -0.0143 | 0.009 | 0.0424 | 0.0382 | 0.0582 | -0.0156 | -0.0926 | 0.0592 | 0.0064 | 0.0233 | -0.0151 | -0.0747
CC(=O)Nc1cccc(-n2c(=O)n(C3CC3)c(=O)c3c(Nc4ccc(I)cc4F)n(C)c(=O)c(C)c32)c1 [Trametinib] + Cc1nc(-c2cn3c(n2)-c2ccc(-c4cnn(C(C)(C)C(N)=O)c4)cc2OCC3)n(C(C)C)n1 [Taselisib] (first compound max 1 µM, 7x7, partner max 10 µM) | 0.926 | 0.632 | 0.895 | 0.681 | 0.0136 | 0.106 | 0.0075 | 0.219 | 0.0405 | 0.066 | 0.0172 | 0.0238 | 0.125 | 0.187 | 0.0656 | 0.068 | 0.0351 | 0.0242 | 0.191 | 0.129
CN(CCO)CC[C@H](CSc1ccccc1)Nc1ccc(S(=O)(=O)NC(=O)c2ccc(N3CCC([C@@H](O)c4ccccc4-c4ccc(Cl)cc4)CC3)cc2)cc1S(=O)(=O)C(F)(F)F [AZD4320] + Cc1cc2ncnn2cc1Nc1ncc2c(n1)n(C1CCOCC1)c(=O)n2C [AZD7648] (first compound max 1 µM, 7x7, partner max 10 µM) | 0.18 | 0.15 | 0.138 | 0.304 | -0.0401 | 0.0058 | 0.0377 | -0.0148 | -0.0718 | -0.0394 | -0.0459 | -0.0099 | -0.0395 | -0.0214 | 0.0242 | -0.0244 | 0.0311 | -0.0064 | 0.0109 | -0.0508
COc1cccc(OCCCN)c1-c1cc(Nc2cnc(C#N)cn2)n[nH]1 [Prexasertib] + O=C(c1cc(Cc2n[nH]c(=O)c3ccccc23)ccc1F)N1CCN(C(=O)C2CC2)CC1 [Olaparib] (first compound max 1 µM, 7x7, partner max 10 µM) | 0.533 | 0.597 | 0.568 | 0.726 | -0.0667 | -0.137 | 0.0014 | -0.0165 | -0.0242 | -0.0616 | -0.099 | 0.0089 | -0.0162 | 0.0101 | -0.0732 | 0.101 | -0.0352 | -0.0744 | -0.0074 | -0.111
Cc1cc2ncnn2cc1Nc1ncc2c(n1)n(C1CCOCC1)c(=O)n2C [AZD7648] + O=C(c1cc(Cc2n[nH]c(=O)c3ccccc23)ccc1F)N1CCN(C(=O)C2CC2)CC1 [Olaparib] (first compound max 10 µM, 7x7, partner max 10 µM) | 0.252 | 0.131 | 0.148 | 0.301 | -0.0489 | -0.0152 | 0.0471 | -0.0152 | -0.0181 | -0.0164 | -0.0401 | -0.0263 | -0.0542 | -0.0059 | -0.0478 | -0.0184 | -0.0545 | -0.0214 | -0.0191 | -0.1
Cc1cc2ncnn2cc1Nc1ncc2c(n1)n(C1CCOCC1)c(=O)n2C [AZD7648] + C=CCn1c(=O)c2cnc(Nc3ccc(N4CCN(C)CC4)cc3)nc2n1-c1cccc(C(C)(C)O)n1 [AZD1775] (first compound max 10 µM, partner max 1 µM) | 0.521 | 0.42 | 0.455 | 0.662 | -0.0542 | 0.0239 | -0.0202 | -0.032 | -0.0714 | 0.0579 | 0.0332 | -0.0816 | -0.0078 | 0.0339 | -0.0825 | 0.049 | -0.0687 | -0.05 | -0.0333 | 0.0049
CN(C)CCCOc1ccc(-c2ccc3ncc4c(c3c2)n(C2CCOCC2)c(=O)n4C)cn1 [AZD0156] + C[C@@H]1COCCN1C2=NC(=NC(=C2)C3(CC3)[S@](=N)(=O)C)C4=C5C=CNC5=NC=C4 [AZD6738] (first compound max 1 µM, 7x7, partner max 10 µM) | 0.335 | 0.452 | 0.48 | 0.581 | -0.063 | 0.0798 | -0.0176 | 0.0186 | -0.0018 | 0.0095 | 0.0052 | 0.0136 | -0.025 | -0.0021 | -0.0765 | 0.0109 | -0.0187 | 0.0198 | 0.0537 | -0.0775
CN(CCO)CC[C@H](CSc1ccccc1)Nc1ccc(S(=O)(=O)NC(=O)c2ccc(N3CCC([C@@H](O)c4ccccc4-c4ccc(Cl)cc4)CC3)cc2)cc1S(=O)(=O)C(F)(F)F [AZD4320] + C=CCn1c(=O)c2cnc(Nc3ccc(N4CCN(C)CC4)cc3)nc2n1-c1cccc(C(C)(C)O)n1 [AZD1775] (first compound max 1 µM, partner max 1 µM) | 0.47 | 0.437 | 0.644 | 0.567 | -0.0309 | -0.0285 | -0.0122 | -0.0003 | 0.0496 | -0.0187 | 0.0103 | 0.14 | -0.0049 | 0.0202 | -0.0178 | -0.0437 | 0.0219 | -0.0122 | 0.0672 | 0.0172

— the supplement of paper PMC11061612
